Assay results as given in patent US9963448B2, “Bicyclic inhibitors of PAD4” (Padlock Therapeutics, Inc., priority 2015, dated 2018).
Counter-ions that a name gives are not always drawn. Like-named read-outs stand apart in the source and are kept apart here.

Tests used:
mPAD4 = mPAD4 (Mus musculus, UniProt Q9Z183); assay: mPAD4 RFMS PAD4 inhibition assay; format: biochemical; details: mPAD4, RFMS readout;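 on mPAD4 RFMS pIC50: grade E means pIC50 at most 4 and F means pIC50 4.0 to 5.0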
Description: (§1) Compounds of the present invention were assayed as inhibitors of PAD4 using the assay protocol described below.
(§2) Compound stock solutions were stored at RT. […] Final assay conditions were as follows:
(§3) Total incubation time: 65 mins at 37° C.
(§4) Stop solution: 40 μl 5% TCA in ACN
(§5) The compound numbers correspond to the compound numbers in Table 1. […] The term pIC50=−log(IC50). […] “NA” stands for “not assayed.”

hPAD4 = hPAD4 (Homo sapiens, UniProt Q9UM07); assay: hPAD4 RFMS (RapidFire mass spectrometry) PAD4 inhibition assay; format: biochemical; details: hPAD4 enzyme, RFMS readout;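 on hPAD4 RFMS pIC50: grade E means pIC50 at most 4 and F means pIC50 4.0 to 5.0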
Description: as §1, §2, §3, §4, §5

[1] = pIC50=−log(IC50), read-out: mPAD4 RFMS pIC50 (converted)
[2] = pIC50=−log(IC50), read-out: hPAD4 RFMS pIC50 (converted)

mPAD4, sequence (Q9Z183 whole entry): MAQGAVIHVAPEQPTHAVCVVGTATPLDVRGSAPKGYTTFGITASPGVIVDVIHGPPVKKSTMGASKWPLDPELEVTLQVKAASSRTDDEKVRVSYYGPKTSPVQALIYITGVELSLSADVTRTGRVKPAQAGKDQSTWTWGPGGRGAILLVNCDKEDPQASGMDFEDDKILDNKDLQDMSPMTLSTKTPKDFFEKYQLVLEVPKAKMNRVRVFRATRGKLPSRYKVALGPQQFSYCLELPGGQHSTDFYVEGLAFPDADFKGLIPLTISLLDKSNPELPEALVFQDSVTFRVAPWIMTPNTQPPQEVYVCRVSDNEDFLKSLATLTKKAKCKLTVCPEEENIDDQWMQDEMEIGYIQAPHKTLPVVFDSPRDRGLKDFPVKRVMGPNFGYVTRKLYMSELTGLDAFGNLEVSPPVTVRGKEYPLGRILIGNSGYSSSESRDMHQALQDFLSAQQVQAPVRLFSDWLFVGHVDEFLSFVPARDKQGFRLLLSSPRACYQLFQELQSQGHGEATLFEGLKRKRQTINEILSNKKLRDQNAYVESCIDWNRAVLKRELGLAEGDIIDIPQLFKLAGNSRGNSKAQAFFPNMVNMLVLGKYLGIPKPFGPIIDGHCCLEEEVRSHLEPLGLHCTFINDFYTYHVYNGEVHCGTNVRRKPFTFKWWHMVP
hPAD4, sequence (Q9UM07 whole entry): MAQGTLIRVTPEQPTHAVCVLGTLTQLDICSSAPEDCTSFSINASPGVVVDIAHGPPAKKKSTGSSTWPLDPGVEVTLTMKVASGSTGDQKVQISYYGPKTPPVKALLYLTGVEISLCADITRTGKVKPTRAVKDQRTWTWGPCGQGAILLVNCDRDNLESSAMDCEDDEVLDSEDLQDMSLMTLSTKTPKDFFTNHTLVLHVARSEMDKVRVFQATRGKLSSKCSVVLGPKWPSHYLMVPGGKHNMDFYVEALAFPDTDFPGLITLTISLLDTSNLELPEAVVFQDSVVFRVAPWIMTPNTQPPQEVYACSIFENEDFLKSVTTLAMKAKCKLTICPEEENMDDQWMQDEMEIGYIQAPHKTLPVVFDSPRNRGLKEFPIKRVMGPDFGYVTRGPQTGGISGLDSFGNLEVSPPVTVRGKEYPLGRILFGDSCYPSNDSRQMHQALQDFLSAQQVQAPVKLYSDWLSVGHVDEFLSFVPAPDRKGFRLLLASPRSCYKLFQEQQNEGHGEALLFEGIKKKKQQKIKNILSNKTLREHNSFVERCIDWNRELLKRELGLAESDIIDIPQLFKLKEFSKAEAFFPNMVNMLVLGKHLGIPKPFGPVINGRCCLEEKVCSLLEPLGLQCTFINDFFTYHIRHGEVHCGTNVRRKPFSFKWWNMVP

| IC50 (mPAD4; [1]) | IC50 (mPAD4; read-out: mPAD4 RFMS IC50) | IC50 (hPAD4; [2]) | IC50 (hPAD4; read-out: hPAD4 RFMS IC50) | hPAD4 RFMS pIC50 (hPAD4; pIC50=−log(IC50)) | Compound |
| --- | --- | --- | --- | --- | --- |
| < 1 µM | < 1 µM | 1 to 10 µM | 1 to 5 µM | – | Cn1c(-c2cc3cccnc3n2CC2CC2)nc2cc(C(=O)N3CCC[C@@H](N)C3)cc(OCC(F)(F)F)c21 [Compound I-59] |
| 1 to 10 µM | 1 to 5 µM | 1 to 10 µM | 1 to 5 µM | – | COCCn1c(-c2nc3cc(C(=O)N4CCC[C@@H](N)C4)cc(OC)c3n2C)cc2cccnc21 [Compound I-137] |
| < 1 µM | < 1 µM | < 1 µM | < 1 µM | – | CCn1c(-c2nc3cc(C(=O)N4C[C@@H](N)CC[C@H]4C)cc(OC)c3n2C)cc2cccnc21 [Compound I-138] |
| 1 to 10 µM | 1 to 5 µM | 1 to 10 µM | 1 to 5 µM | – | COCCn1c(-c2nc3cc(C(=O)N4C[C@@H](N)CC[C@H]4C)cc(OC)c3n2C)cc2cccnc21 [Compound I-190] |
| < 1 µM | < 1 µM | < 1 µM | < 1 µM | – | COc1cc(C(=O)N2CC[C@@H]3CCN[C@@H]3C2)cc2nc(-c3cc4cccnc4n3CC3CC3)n(C)c12 [Compound I-11] |
| < 1 µM | < 1 µM | < 1 µM | < 1 µM | – | COc1cc(C(=O)N2C[C@@H](N)C[C@H](F)C2)cc2nc(-c3cc4cccnc4n3CC3CC3)n(C)c12 [Compound I-34] |
| 1 to 10 µM | 5 to 10 µM | 1 to 10 µM | 1 to 5 µM | – | COc1cc(C(=O)N2CCC[C@@H](N)C2)cc2nc(-c3cc4cccnc4n3CC3CC(C)(O)C3)n(C)c12 (some centres unmarked) [Compound I-113] |
| < 1 µM | < 1 µM | < 1 µM | < 1 µM | – | CCCn1c(-c2nc3cc(C(=O)N4CCC[C@@H](N)C4)cc(OC)c3n2C)cc2cccnc21 [Compound I-149] |
| 1 to 10 µM | 5 to 10 µM | 10 to 100 µM | > 10 µM | – | COc1cc(C(=O)N2C[C@H](N)CC[C@H]2C)cc2nc(-c3cc4cccnc4n3CC3CC3)n(C)c12 [Compound I-88] |
| 1 to 10 µM | 1 to 5 µM | 1 to 10 µM | 1 to 5 µM | – | COc1cc(C(=O)N2C[C@H]3CC[C@@H]2[C@@H]3N)cc2nc(-c3cc4cccnc4n3CCF)n(C)c12 [Compound I-157] |
| 10 to 100 µM | > 10 µM | 1 to 10 µM | 5 to 10 µM | – | Cn1c(-c2cc3cccnc3n2CC2CC2)nc2cc(C(=O)N3CCC[C@@H](N)C3)cc(S(C)(=O)=O)c21 [Compound I-131, (3R)-1-{2-[1-(cyclopropylmethyl)-1H-pyrrolo[2,3-b]pyridin-2-yl]-7-methanesulfonyl-1-methyl-1H-1,3-benzodiazole-5-carbonyl}piperidin-3-amine] |
| 1 to 10 µM | 5 to 10 µM | 10 to 100 µM | > 10 µM | – | COc1cc(C(=O)N2C[C@@H](N)CC[C@H]2CO)cc2nc(-c3cc4cccnc4n3CC3CC3)n(C)c12 (single isomer, unassigned) [Compound I-229] |
| 1 to 10 µM | 1 to 5 µM | 10 to 100 µM | > 10 µM | – | COc1cc(C(=O)N2C[C@H](N)CC[C@@H]2CO)cc2nc(-c3cc4cccnc4n3CC3CC3)n(C)c12 (racemic) [Compound I-221, rac-[(2R,5R)-5-amino-1-{2-[1-(cyclopropylmethyl)-1H-pyrrolo[2,3-b]pyridin-2-yl]-7-methoxy-1-methyl-1H-1,3-benzodiazole-5-carbonyl}piperidin-2-yl]methanol] |

Further lines, the compound ahead of its results:

| Compound | IC50 (mPAD4; [1]) | IC50 (mPAD4; read-out: mPAD4 RFMS IC50) | IC50 (hPAD4; [2]) | IC50 (hPAD4; read-out: hPAD4 RFMS IC50) | hPAD4 RFMS pIC50 (hPAD4; pIC50=−log(IC50)) |
| --- | --- | --- | --- | --- | --- |
| CCn1c(-c2nc3cc(C(=O)N4C[C@H]5CC[C@@H]4[C@@H]5N)cc(OC)c3n2[C@H]2C[C@H](OC)C2)cc2cccnc21 [Compound I-207] | 1 to 10 µM | 1 to 5 µM | 1 to 10 µM | 5 to 10 µM | – |
| COc1cc(C(=O)N2C[C@H]3CC[C@@H]2[C@@H]3N)cc2nc(-c3cc4cccnc4n3CC3CC3)n(CC3CCOC3)c12 (some centres unmarked) [Compound I-217] | < 1 µM | < 1 µM | < 1 µM | < 1 µM | – |
| COCCn1c(-c2cc3cccnc3n2CC2CC2)nc2cc(C(=O)N3C[C@H]4CC[C@@H]3[C@@H]4N)cc(OC)c21 [Compound I-178] | < 1 µM | < 1 µM | < 1 µM | < 1 µM | – |
| COc1cc(C(=O)N2CC[C@H]3OCCN[C@H]3C2)cc2nc(-c3cc4cccnc4n3CC3CC3)n(C)c12 [Compound I-28] | < 1 µM | < 1 µM | < 1 µM | < 1 µM | – |
| COc1cc(C(=O)N2CCC3(CNCCC3(F)F)C2)cc2nc(-c3cc4cccnc4n3CC3CC3)n(C)c12 (racemic) [Compound I-97] | 10 to 100 µM | > 10 µM | 10 to 100 µM | > 10 µM | – |
| COc1ccc2cc(-c3nc4cc(C(=O)N5C[C@H](N)C[C@@H](F)C5)cc(OC(F)F)c4n3C)n(CC3CC3)c2n1 [Compound I-109, (3R,5R)-1-{2-[1-(cyclopropylmethyl)-6-methoxy-1H-pyrrolo[2,3-b]pyridin-2-yl]-7-(difluoromethoxy)-1-methyl-1H-1,3-benzodiazole-5-carbonyl}-5-fluoropiperidin-3-amine] | < 1 µM | < 1 µM | < 1 µM | < 1 µM | – |
| COc1cc2c(cc1C(=O)N1CCC[C@@H](N)C1)nc(-c1cc3cccnc3n1CC1CC1)n2C [Compound I-68, (3R)-1-{2-[1-(cyclopropylmethyl)-1H-pyrrolo[2,3-b]pyridin-2-yl]-6-methoxy-1-methyl-1H-1,3-benzodiazole-5-carbonyl}piperidin-3-amine hydrochloride] | 10 to 100 µM | > 10 µM | 1 to 10 µM | 5 to 10 µM | – |
| Cn1c(-c2cc3cccnc3n2CC2CC2)nc2cc(C(=O)N3CC[C@H]4CCN[C@H]4C3)ccc21 [Compound I-10] | 1 to 10 µM | 5 to 10 µM | 1 to 10 µM | 1 to 5 µM | – |
| Cn1c(-c2cc3cccnc3n2CC2CC2)nc2cc(C(=O)N3C[C@@H](N)C[C@H](F)C3)ccc21 [Compound I-66] | 1 to 10 µM | 1 to 5 µM | 1 to 10 µM | < 1 µM | – |
| CCn1c(-c2nc3cc(C(=O)N4C[C@H]5CC[C@@H]4[C@@H]5N)ccc3n2CCOC)cc2cccnc21 [Compound I-186] | 10 to 100 µM | > 10 µM | 1 to 10 µM | 1 to 5 µM | – |
| COc1cc(C(=O)N2CC3(CNCCO3)C2)cc2nc(-c3cc4cccnc4n3CC3CC3)n(C)c12 [Compound I-32] | 10 to 100 µM | > 10 µM | > 100 µM | > 10 µM | – |
| CCn1c(-c2nc3cc(C(=O)N4C[C@H]5CC[C@@H]4[C@@H]5N)cc(OC)c3n2CC2CC(F)(F)C2)cc2cccnc21 [Compound I-179] | 1 to 10 µM | 1 to 5 µM | < 1 µM | < 1 µM | – |
| COc1cc(C(=O)N2C[C@H]3CC[C@@H]2[C@@H]3N)cc2nc(-c3cc4cccnc4n3CC3CC3)n(CC(F)F)c12 [Compound I-234] | 1 to 10 µM | 1 to 5 µM | – | < 1 µM | H (pIC50 of ≥6) |
| COc1ccc2cc(-c3nc4cc(C(=O)N5CCC[C@@H](N)C5)ccc4n3C)n(CC3CC3)c2n1 [Compound I-70, (3R)-1-{2-[1-(Cyclopropylmethyl)-6-methoxy-1H-pyrrolo[2,3-b]pyridin-2-yl]-1-methyl-1H-1,3-benzodiazole-5-carbonyl}piperidin-3-amine] | < 1 µM | < 1 µM | < 1 µM | < 1 µM | – |
| COc1cc(C(=O)N2C[C@H]3CC[C@@H]2[C@@H]3N)cc2nc(-c3cc4cccnc4n3CC3CC3)n(CCSC)c12 [Compound I-235] | < 1 µM | < 1 µM | < 1 µM | < 1 µM | – |
| Cn1c(-c2cc3cccnc3n2CC2CC2)nc2cc(C(=O)N3C[C@H](N)C[C@@H](F)C3)cc(OC(F)F)c21 [Compound I-98] | < 1 µM | < 1 µM | < 1 µM | < 1 µM | – |
| COc1cc(C(=O)N2CC3(CCOC[C@@H]3N)C2)cc2nc(-c3cc4cccnc4n3CC3CC3)n(C)c12 [Compound I-95] | 10 to 100 µM | > 10 µM | 10 to 100 µM | > 10 µM | – |
| COc1cc(C(=O)N2C[C@H]3CC[C@@H]2[C@@H]3N)cc2nc(-c3cc4ccc(C)nc4n3CC3CC3)n(C)c12 [Compound I-198] | < 1 µM | < 1 µM | < 1 µM | < 1 µM | – |
| COc1cc(C(=O)N2CC[C@@H]3OCCN[C@@H]3C2)cc2nc(-c3cc4cccnc4n3CC3CC3)n(C)c12 [Compound I-29] | 1 to 10 µM | 5 to 10 µM | 10 to 100 µM | 5 to 10 µM | – |
| COc1cc(C(=O)N2C[C@H]3C[C@H](O)[C@@H]2[C@@H]3N)cc2nc(-c3cc4cccnc4n3CC3CC3)n(C)c12 [Compound I-162, (1S,4R,6S,7R)-7-Amino-2-{2-[1-(cyclopropylmethyl)-1H-pyrrolo[2,3-b]pyridin-2-yl]-7-methoxy-1-methyl-1H-1,3-benzodiazole-5-carbonyl}-2-azabicyclo[2.2.1]heptan-6-ol] | 1 to 10 µM | 1 to 5 µM | < 1 µM | < 1 µM | – |
| COc1cc(C(=O)N2CC(O)(C3(N)CCCC3)C2)cc2nc(-c3cc4cccnc4n3CC3CC3)n(C)c12 [Compound I-84] | 10 to 100 µM | > 10 µM | 10 to 100 µM | > 10 µM | – |
| COc1cc(C(=O)N2C[C@@H]3COC[C@]3(CN)C2)cc2nc(-c3cc4cccnc4n3CC3CC3)n(C)c12 [Compound I-126] | 10 to 100 µM | > 10 µM | 10 to 100 µM | > 10 µM | – |
